In a compilation of properties of binary mixtures (doi:10.1016/j.tca.2014.09.015):

Experiment: xn = mol fraction of the nth substance listed
Settings: 101 kPa

Row | viscosity (303.15 K, x1 = 1) [mPa·s] | viscosity (313.15 K, x1 = 1) [mPa·s] | viscosity (298.15 K, x2 = 0.2761) [mPa·s] | viscosity (298.15 K, x2 = 0.8745) [mPa·s] | viscosity (303.15 K, x2 = 0.5594) [mPa·s] | viscosity (303.15 K, x2 = 0.8745) [mPa·s] | viscosity (308.15 K, x2 = 0.5594) [mPa·s] | viscosity (323.15 K, x2 = 0.7786) [mPa·s] | viscosity (328.15 K, x2 = 0) [mPa·s] | viscosity (328.15 K, x2 = 0.7786) [mPa·s] | viscosity (338.15 K, x2 = 0.2761) [mPa·s] | viscosity (343.15 K, x2 = 0.2761) [mPa·s] | SMILES
1 | 0.81 | 0.68 |  |  |  |  |  |  |  |  |  |  | O + CCOS(=O)(=O)[O-].CC[N+]1(C)CCOCC1
2 |  |  | 690 | 7.7 | 94 | 6.5 | 72 | 8.8 | 780 | 7.6 | 86 | 69 | CCOS(=O)(=O)[O-].CC[N+]1(C)CCOCC1 + O
